Measured values published in paper doi:10.1101/2024.08.25.609621 (bioRxiv, 2024).
Read-outs that look alike come from different tables or passages of the source.

Molecular target: SARS-CoV-2 NSP3 macrodomain (Mac1), P43 crystal form (Severe acute respiratory syndrome coronavirus 2, UniProt P0DTD1)
Assay type: binding
Settings: for 1-BDC: PanDDA background density correction; for X-ray crystal structure: X-ray crystal structure determined (TRUE); for Total number of conformations: ligand conformations modeled in Mac1 crystal structure; for Binding site: site of ligand in X-ray crystal structure
[1] = crystal soak 10 mM, P43 crystals
[2] = occupancy estimate from PanDDA 1-BDC
[3] = crystal soak 10 mM, TFA/DMSO background map

Compound | 1-BDC | X-ray crystal structure | Pandda run, overall: Hit [1] | Pandda run, overall: Modeled [1] | PanDDA run, DMSO background map: 1-BDC (crystal soak 10 mM) | PanDDA run, DMSO background map: Hit (crystal soak 10 mM) | Total number of conformations | 2*(1-BDC) (%) [2] | Binding site | Occupancy difference (refined_occupancy - 2*(1-BDC)) | Refined ligand occupancy (%) | PanDDA run, DMSO background map: 1-BDC (event 1) | 2*(1-BDC) (%) (occupancy estimate from PanDDA BDC) | Pandda run, overall: Modeling comment [1] | PanDDA run, TFA/DMSO background map: 1-BDC [3] | PanDDA run, TFA/DMSO background map: Hit [3] | X-ray crystallography: Binding site (site where the ligand is bound in the X-ray crystal structure)
Cc1ccccc1CC(CO)Nc1ncnc2[nH]ccc12 (stereo not shown) [AVI-3674] | 0.19 | TRUE | TRUE | TRUE | 0.19 | TRUE | 1 | 38% | Adenosine | – | – | – | – | – | – | – | –
CC(O)C(C)Nc1ncnc2[nH]ccc12 (stereo not shown) [AVI-5158] | 0.17 | TRUE | – | – | – | – | 2 | – | Adenosine | 0 | 34% | 0.17 | 34% | – | – | – | –
O=C(O)C(F)(F)F.OCC(Nc1ncnc2[nH]ccc12)C(O)C1CCCCC1 (stereo not shown) [AVI-3687] | – | – | TRUE | – | 0.15 | TRUE | – | – | – | – | – | – | – | Weak density, not modeled | 0.08 | TRUE | –
C#CCC(CO)Nc1ncnc2[nH]ccc12 (stereo not shown) [AVI-3644] | 0.18 | TRUE | TRUE | TRUE | 0.18 | TRUE | 1 | 36% | Adenosine | – | – | – | – | – | – | – | –
OCC(Nc1ncnc2[nH]ccc12)c1ccco1 (stereo not shown) [AVI-3659] | 0.16 | TRUE | TRUE | TRUE | 0.16 | TRUE | 1 | 32% | Adenosine | – | – | – | – | – | – | – | –
Cn1cc(CC(CO)Nc2ncnc3[nH]ccc23)cn1 (stereo not shown) [AVI-3657] | 0.15 | TRUE | TRUE | TRUE | 0.15 | TRUE | 1 | 30% | Adenosine | – | – | – | – | – | – | – | –
CC1CCN(c2ncnc3[nH]ccc23)C1CO (stereo not shown) [AVI-3655] | 0.21 | – | TRUE | TRUE | 0.21 | TRUE | 1 | 42% | – | – | – | – | – | – | – | – | Adenosine
OCC(Nc1ncnc2[nH]ccc12)C1CCCC1 (stereo not shown) [AVI-3649] | 0.16 | TRUE | TRUE | TRUE | 0.16 | TRUE | 1 | 32% | Adenosine | – | – | – | – | – | – | – | –
